From patent US20080107661A1, “MUC1 and ABL” (Dana-Farber Cancer Institute, Inc., priority 2006, published 2008)
Where a name gives a salt, the structure may show the parent alone.

How the values were obtained:
HCT116 cells = test: Assessment of apoptosis (sub-G1 DNA, propidium iodide, FACScan); assay type: cell-based, human; conditions: 10 μM STI571 with CDDP, 12 h
[1] = tested on: MUC1-CD (purified MUC1 cytoplasmic domain, thrombin-cleaved from GST-MUC1-CD)
c-Abl = test: Nuclear and cytosolic c-Abl in HeLa/vector and HeLa/MUC1 cells after genotoxic agents (subcellular fractionation, immunoblot); assay type: cell-based, human; conditions: 1 μM ADR, 2 hours
From the text: (§1) Cell culture. Human HeLa cervical cancer cells, HCT116/vector (HCT116 colorectal carcinoma cells stably transfected with an empty vector), HCT116/MUC1 (HCT116 colorectal carcinoma cells stably transfected with an expression vector encoding a MUC1 polypeptide), HCT116/MUC1(Y46F) (HCT116 colorectal carcinoma cells stably transfected with an expression vector encoding a mutant MUC1 polypeptide containing an amino acid substitution at position 46 changing a tyrosine (Y) to phenylalanine (F)) colon cancer cells (Ren et al., (2002) J. Biol. Chem. 277: 17616-17622) and 293 cells were cultured in Dulbecco's modified medium with 10% heat-inactivated fetal bovine serum, 100 units/ml penicillin, 100 μg/ml streptomycin and 2 mM L-glutamine. Human ZR-75-1/vector (ZR-75-1 breast cancer cells stably transfected with an empty vector) and ZR-75-1/MUC1siRNA (ZR-75-1 breast cancer cells stably transfected with an expression vector encoding an siRNA specific for MUC1) breast cancer cells (Ren et al., (2004) Cancer Cell 5:163-175) were grown in RPMI1640 medium containing 10% heat-inactivated fetal bovine serum and antibiotics. Cells were treated with 1 μM adriamycin (ADR; Calbiochem), 100 μM cisplatin (CDDP; Sigma) or 10 μM STI571 (Gleevec; Novartis, Basel, Switzerland).
Subcellular fractionation. Nuclear fractions were prepared as described (Kharbanda et al., (1996) Cancer Res. 56:3617-3621). Cytosolic fractions were prepared as described (Hill et al., (2004) EMBO J. 23:2134-2145). Cell membrane fractions were prepared with the Plasma Membrane Extraction Kit (BioVision Research Products, Mountain View, Calif.). Mitochondria were purified as described (Ren et al., (2004) Cancer Cell 5:163-175; Ren et al., (2006) Oncogene 25:20-31).
Immunoprecipitations and immunoblot analysis. Cell lysates were prepared as described (Kharbanda et al., (1995) Nature 376:785-788); Yoshida et al., (2005) Nat. Cell Biol. 7:278-285). Soluble proteins were incubated with anti-MUC1-N (Kufe et al., (1984) Hybridoma 3:223-232), anti-MUC1-C (Ab5; Neomarker, Montreal, Quebec), anti-Flag (Sigma, St. Louis, Mo.), anti-c-Abl (Ab3; Oncogene, San Diego, Calif.) or anti-14-3-3 (Abcam Inc., Cambridge, Mass.) antibodies for 2 hours at 4° C., followed by precipitation with protein G-Sepharose beads for 1 hour. […] Intensity of the signals was determined by densitometric scanning. Statistical significance was determined by the Student's t-test.

GFP-c-Abl = test: Nuclear targeting of GFP-c-Abl in transiently transfected 293 cells; assay type: cell-based, human
From the text: as §1
Cell transfections. […]

[2] = tested on: MUC1 (mucin 1), wild-type, expressed in cells as heterodimer of MUC1-N and MUC1-C
[3] = tested on: MUC1(Y60F), MUC1 with tyrosine 60 of the cytoplasmic domain changed to phenylalanine

Cc1ccc(NC(=O)c2ccc(CN3CCN(C)CC3)cc2)cc1Nc1nccc(-c2cccnc2)n1 [STI751, imatinib mesylate]
effect on CDDP-induced apoptosis (sub-G1 DNA) (HCT116 cells; HCT116/MUC1(Y60F) cells): significantly attenuated | effect on CDDP-induced apoptosis (sub-G1 DNA) (HCT116 cells; HCT116/MUC1 cells): no significant effect | effect on CDDP-induced apoptosis (sub-G1 DNA) (HCT116 cells; HCT116/vector cells): significantly attenuated

GST-c-Abl(K-R) (GST fused to a kinase defective mutant c-Abl, lysine to arginine in the active site)
phosphorylation of MUC1-CD (in vitro kinase assay, 32P-ATP, SDS-PAGE and autoradiography) [1]: There was no detectable phosphorylation when MUC1-CD was incubated with a purified kinase-inactive c-Abl(K-R)

COc1cccc2c1C(=O)c1c(O)c3c(c(O)c1C2=O)C[C@@](O)(C(=O)CO)C[C@@H]3O[C@H]1C[C@H](N)[C@H](O)[C@H](C)O1 [ADR, adriamycin]
nuclear targeting of c-Abl (c-Abl; HeLa/MUC1 cells): little to no nuclear targeting of c-Abl | nuclear targeting of c-Abl (c-Abl; HeLa/vector cells): targeting of c-Abl to the nucleus | ADR-induced nuclear targeting of c-Abl (GFP-c-Abl; GFP-c-Abl with coexpressed MUC1, 2 hours): attenuated by coexpression of MUC1 | nuclear targeting of GFP-tagged c-Abl (GFP-c-Abl; GFP-c-Abl without MUC1, ADR, 2 hours): increased by ADR treatment

c-Abl (nonreceptor c-Abl tyrosine kinase), endogenous in human cell lines
c-Abl Thr-735 phosphorylation (anti-c-Abl precipitates, immunoblot anti-phospho-c-Abl-Thr-735) [2]: c-Abl Thr-735 phosphorylation was attenuated by expression of MUC1 | c-Abl Thr-735 phosphorylation (anti-c-Abl precipitates, immunoblot anti-phospho-c-Abl-Thr-735) [3]: c-Abl Thr-735 phosphorylation was attenuated by expression of MUC1, but not MUC1(Y60F), in HCT116 cells

GST-c-Abl (glutathione-S-transferase fused in frame with a wild-type c-Abl polypeptide)
phosphorylation of MUC1-CD (in vitro kinase assay, 32P-ATP, SDS-PAGE and autoradiography) [1]: Analysis of the reaction products by SDS-PAGE and autoradiography showed phosphorylation of MUC1-CD | phosphorylation of MUC1-CD(Y60F) (in vitro kinase assay, 32P-ATP, SDS-PAGE and autoradiography) (MUC1-CD(Y60F)): c-Abl phosphorylation was substantially decreased with the MUC1-CD(Y60F) mutant
